Experimental data taken from patent EP0600782A1, “C-11 modified pradimicin derivatives” (priority 1992, dated 1994).
Like-named read-outs stand apart in the source and are kept apart here.

What was measured:
[1] = system: Aspergillus fumigatus IAM 2034; experiment: In vitro antifungal activity (MIC), agar dilution method, 11-xylosyl precursors; assay type: cell-based; conditions: 10^6 cells/ml, 28°C, 40 hrs
Method: (§1) The in vitro antifungal activities of pradimicins T1 and T2 and 11-0-dexylosylpradimicin T1 were determined by the agar dilution method on yeast morphology agar containing 1/15M phosphate buffer (pH 7.0).

[2] = system: Candida tropicalis IFO 10241; experiment: as above; assay type: cell-based; conditions: 10^6 cells/ml, 28°C, 40 hrs
Method: as §1

[3] = system: Cryptococcus neoformans IAM 4514; experiment: as above; assay type: cell-based; conditions: 10^6 cells/ml, 28°C, 40 hrs
Method: as §1

[4] = system: Candida tropicalis 85-8 (Kitasato); experiment: as above; assay type: cell-based; conditions: yeast morphology agar + 1/15M phosphate buffer (pH 7.0), 10^6 cells/ml, 28°C, 40 hrs
Method: as §1

[5] = system: Cryptococcus neoformans D49; experiment: as above; assay type: cell-based; conditions: yeast morphology agar + 1/15M phosphate buffer (pH 7.0), 10^6 cells/ml, 28°C, 40 hrs
Method: as §1

[6] = system: Saccharomyces cerevisiae ATCC 9763; experiment: as above; assay type: cell-based; conditions: 10^6 cells/ml, 28°C, 40 hrs
Method: as §1

[7] = system: Candida albicans ATCC 32354 (B311); experiment: as above; assay type: cell-based; conditions: 10^6 cells/ml, 28°C, 40 hrs
Method: as §1

[8] = system: Candida albicans 83-2-14 (Juntendo); experiment: as above; assay type: cell-based; conditions: yeast morphology agar + 1/15M phosphate buffer (pH 7.0), 10^6 cells/ml, 28°C, 40 hrs
Method: as §1

[9] = system: Trichophyton mentagrophytes 4329; experiment: as above; assay type: cell-based; conditions: yeast morphology agar + 1/15M phosphate buffer (pH 7.0), 10^7 cells/ml, 28°C, 60 hrs
Method: as §1

[10] = system: Candida albicans ATCC 38247; experiment: as above; assay type: cell-based; conditions: 10^6 cells/ml, 28°C, 40 hrs
Method: as §1

Candida albicans A9540 = experiment: as above; assay type: cell-based; conditions: yeast morphology agar + 1/15M phosphate buffer (pH 7.0), 10^6 cells/ml, 28°C, 40 hrs
Method: as §1

[11] = system: Candida albicans A9540 systemic infection; experiment: In vivo efficacy against systemic infection in mice; set-up: species or system male ICR mice; conditions: for ED50: Candida albicans, iv, 480 h, read-out: PD50; for PD50: C. albicans A9540 systemic infection, male ICR mice, single intravenous dose immediately after challenge, survival rate 20 days after infection
Method: (§2) Pradimicins T1 and T2 were evaluated for in vivo efficacy against a Candida albicans A9540 systemic infection in male ICR mice (20-24 g body weight) as described by Oki et al. in "Water-soluble pradimicin derivatives, synthesis and antifungal evaluation of N,N,-dimethyl pradimicins", J. Antibiotics 43:1230-1235, 1990. Five mice at each dose level were challenged intravenously with ten times the 50% lethal dose of the pathogen suspended in saline. Antibiotics were intravenously administered once immediately after the fungal challenge. Infection control animals (n=10) died from 7 to 12 days. The 50% protective dose (PD₅₀) was calculated from the survival rate 20 days after the fungal infection. The acute toxicity of pradimicins T1 and T2 was determined in mice after a single intravenous dose.

[12] = Acute toxicity in mice after a single intravenous dose; assay type: in vivo
Method: as §2

[13] = IAM2034, yeast morphology agar + 1/15M phosphate buffer (pH 7.0), read-out: MIC
[14] = IFO10241, yeast morphology agar + 1/15M phosphate buffer (pH 7.0), read-out: MIC
[15] = IAM4514, yeast morphology agar + 1/15M phosphate buffer (pH 7.0), read-out: MIC
[16] = ATCC9763, yeast morphology agar + 1/15M phosphate buffer (pH 7.0), read-out: MIC
[17] = ATCC32354, yeast morphology agar + 1/15M phosphate buffer (pH 7.0), read-out: MIC
[18] = ATCC38247, yeast morphology agar + 1/15M phosphate buffer (pH 7.0), read-out: MIC
[19] = yeast morphology agar + 1/15M phosphate buffer (pH 7.0)

Row | Molecule | MIC [1, 13] [µg/mL] | MIC [2, 14] [µg/mL] | MIC [3, 15] [µg/mL] | MIC ([4]; read-out: MIC) [µg/mL] | MIC ([5]; read-out: MIC) [µg/mL] | MIC [6, 16] [µg/mL] | MIC [7, 17] [µg/mL] | MIC ([9]; read-out: MIC) [µg/mL] | MIC [10, 18] [µg/mL] | MIC (Candida albicans A9540; read-out: MIC) [µg/mL] | ED50 [11] [mg/kg] | PD50 [11] [mg/kg] | MIC [1, 19] [µg/mL] | MIC [2, 19] [µg/mL] | MIC [3, 19] [µg/mL] | MIC [4] [µg/mL] | MIC [5] [µg/mL] | MIC [6, 19] [µg/mL] | MIC [7, 19] [µg/mL] | MIC [8] [µg/mL] | further results
1 | Cc1cc2c(c(O)c1C(=O)NCC(=O)O)-c1c(cc3c(c1O)C(=O)c1cc(O)cc(O)c1C3=O)[C@H](O)[C@H]2O[C@@H]1O[C@H](C)[C@H](O)[C@H](O[C@@H]2OC[C@@H](O)[C@H](O)[C@H]2O)[C@H]1O [11-O-Dexylosyl-pradimicin T1] | 25 | 12.5 | 6.3 | 12.5 | 6.3 | 3.1 | 3.1 | 12.5 | 3.1 | 6.3 |  |  |  |  |  |  |  |  |  |  | MIC ([8]; read-out: MIC): 3.1 µg/mL
2 | C[C@@H]1[C@H](O)[C@@H](C)/C=C/C=C/C=C/C=C/C=C/C=C/C=C/[C@H](O[C@@H]2O[C@H](C)[C@@H](O)[C@H](N)[C@@H]2O)C[C@@H]2O[C@](O)(C[C@@H](O)C[C@@H](O)[C@H](O)CC[C@@H](O)C[C@@H](O)CC(=O)O[C@H]1C)C[C@H](O)[C@H]2C(=O)O [Amphotericin B, reference compound] |  |  |  |  |  |  |  |  |  |  | 0.2 |  |  |  |  |  |  |  |  |  | LD50 ([12]; mouse, in vivo, read-out: LD50): 4.5 mg/kg
3 | CC(=O)N1CCN(c2ccc(OCC3COC(Cn4ccnc4)(c4ccc(Cl)cc4Cl)O3)cc2)CC1 (centres unmarked) [Ketoconazole, reference compound] | 3.1 | 50 | 0.4 | 100 | 0.8 | 50 | 50 | 0.8 | 25 | 50 | > 50 |  |  |  |  |  |  |  |  |  | 
4 | Pradimicin T1 |  |  |  |  |  |  |  |  |  |  |  | 27 | 6.3 | 12.5 | 3.1 | 25 | 3.1 | 3.1 | 6.3 | 6.3 | MIC [9]: 6.3 µg/mL; MIC [10, 19]: 1.6 µg/mL; MIC (Candida albicans A9540): 6.3 µg/mL; LD50 [12]: 300 mg/kg
5 | Pradimicin T2 |  |  |  |  |  |  |  |  |  |  |  | >50 | >100 | 6.3 | 6.3 | 6.3 | 6.3 | 0.8 | 3.1 | 3.1 | MIC [9]: 50 µg/mL; MIC [10, 19]: 1.6 µg/mL; MIC (Candida albicans A9540): 3.1 µg/mL; LD50 [12]: >600 mg/kg
